Tested on: striped stem borer (SSB)
Assay: Laboratory bioassay, rice stem dipping method, against striped stem borer on rice
Settings: for Numbers of Dead SSB: four replicates
Description: Cotoxicity Coefficient (CTC) value was used to determine an existence of synergic effect between spinetoram and methoxyfenozide in the formulated pesticidal composition.
The CTC value of the formulated composition was used to determine the biological responses to the treatment: additive, synergism, or antagonism. The CTC value of more than 120 indicates a synergistic effect between the combined pesticidal compounds. The CTC value of about 80 to 120 indicates an additive effect between the combined pesticidal compounds. The CTC value of less than 80 indicates antagonistic effect between the combined pesticidal compounds
Pesticidal compositions were prepared by thoroughly mixing spinetoram and methoxyfenozide at various weight ratios as shown in TABLE 3.
The effectiveness of the pesticidal compositions for controlling of striped stem borer on rice was determined using laboratory bioassays, and compared to those of three controls. In the first control, only spinetoram was used for the treatment. In the second control, only methoxyfenozide was used for the treatment. In the third control, no pesticide was used.
The rice stem dipping method based on Standard Method for Bioassay Test (Chinese Standard Method NY/T1154.4-2006: Continuous Immersion Test for Insecticide Systemic Activity) was used to conduct the laboratory bioassays.
Five stems of rice were dipped into the solutions of pestidical compositions for 10 seconds and then taken out for drying in the air. The treated stems were placed into glass tubes. Treatment with water, solvent, and emulsifier alone was used as reference check. There were four replicates for each treatment. About 10±1 larvae of third-instar striped stem borer were placed into each glass tube. The openings of the tubes were covered with gauze. Laboratory bioassays were conducted at room temperature. The number of dead larvae was recorded at 72 hours following the treatment.

[1] = Chilo suppressalis, in Oryza sativa, 72 h

COc1cccc(C(=O)NN(C(=O)c2cc(C)cc(C)c2)C(C)(C)C)c1C [Methoxyfenozide, methoxyfenozide]
LC50 [1]: 21.1 µg/mL | mortality at 2.5 µg/mL [1]: 4.77% | mortality at 5 µg/mL [1]: 13.6% | mortality at 10 µg/mL [1]: 28.4% | mortality at 20 µg/mL [1]: 43.9% | mortality at 40 µg/mL [1]: 67.5% | mortality at 80 µg/mL [1]: 87.5% | Numbers of Dead SSB (mass concentration 2.5 mg/L, 72 hours): 0.5 | Numbers of Dead SSB (mass concentration 5 mg/L, 72 hours): 1.5 | Numbers of Dead SSB (mass concentration 10 mg/L, 72 hours): 3 | Numbers of Dead SSB (mass concentration 20 mg/L, 72 hours): 7 | Numbers of Dead SSB (mass concentration 40 mg/L, 72 hours): 6.75 | Numbers of Dead SSB (mass concentration 80 mg/L, 72 hours): 8.75 | LC90 (third-instar larvae, 72 hours): 107.74 mg/L

spinetoram
Numbers of Dead SSB (mass concentration 0.125 mg/L, 72 hours): 0.5 | Mortality (%) (mass concentration 0.125 mg/L, third-instar larvae, 72 hours): 4.55% | Numbers of Dead SSB (mass concentration 0.25 mg/L, 72 hours): 2 | Mortality (%) (mass concentration 0.25 mg/L, third-instar larvae, 72 hours): 18.41% | Numbers of Dead SSB (mass concentration 0.5 mg/L, 72 hours): 4 | Mortality (%) (mass concentration 0.5 mg/L, third-instar larvae, 72 hours): 37.73% | Numbers of Dead SSB (mass concentration 1 mg/L, 72 hours): 6.75 | Mortality (%) (mass concentration 1 mg/L, third-instar larvae, 72 hours): 64.09% | Numbers of Dead SSB (mass concentration 2 mg/L, 72 hours): 8.5 | Mortality (%) (mass concentration 2 mg/L, third-instar larvae, 72 hours): 81.14% | Numbers of Dead SSB (mass concentration 4 mg/L, 72 hours): 9.75 | Mortality (%) (mass concentration 4 mg/L, third-instar larvae, 72 hours): 95.23% | LC50 (third-instar larvae, 72 hours): 0.71 µg/mL | LC90 (third-instar larvae, 72 hours): 2.76 mg/L

Reference: US10542754B2, “Synergistic effect of spinetoram and methoxyfenozide for control of stem borer on rice” (Dow AgroSciences LLC, priority 2014, dated 2020)
